Test: Critical micelle concentration and surface tension by Wilhelmy plate method
Assay type: physicochemical
Settings: comparison of Surfactant 9 and Comparative Surfactant
Description: As surfactant concentration increases, surface tension decreases. Once the surface is completely overlaid with surfactant molecules, micelles begin to form. This point represents the CMC, as well as the minimum surface tension. Further addition of surfactant will not further affect the surface tension. CMC may therefore be measured by observing the change in surface tension as a function of surfactant concentration. One such method for measuring this value is the Wilhemy plate method. A Wilhelmy plate is usually a thin iridium-platinum plate attached to a balance by a wire and placed perpendicularly to the air-liquid interface. The balance is used to measure the force exerted on the plate by wetting. This value is then used to calculate the surface tension (Y) according to Equation 1: […]
Nuclear magnetic resonance (NMR) spectroscopy was performed on a Bruker 500 MHz spectrometer. The critical micelle concentration (CMC) was determined by the Wilhelmy plate method at 23° C. with a tensiometer (DCAT 11, DataPhysics Instruments GmbH) equipped with a Pt—Ir plate. Dynamic surface tension was determined with a bubble pressure tensiometer (Krüss BP100, Krüss GmbH), at 23° C. Contact angle was determined with the optical contact angle goniometer (OCA 15 Pro, DataPhysics GmbH) equipped with a digital camera.

SMILES	surfactant properties (activity in words)
C[N+](C)(CCCCCC(=O)NCCC[Si](O[Si](C)(C)C)(O[Si](C)(C)C)O[Si](C)(C)C)CC(=O)O [Comparative Surfactant, N-(carboxymethyl)-6-((3-(1,1,1,5,5,5-hexamethyl-3-((trimethylsilyl)oxy)trisiloxan-3-yl)propyl)amino)-N,N-dimethyl-6-oxohexan-1-aminium bromide]	inferior surfactant properties
C[N+](C)(CCCCCC(=O)O)CCCCCC(=O)NCCC[Si](O[Si](C)(C)C)(O[Si](C)(C)C)O[Si](C)(C)C [Surfactant 9, N-(5-carboxypentyl)-6-((3-(1,1,1,5,5,5-hexamethyl-3-((trimethylsilyl)oxy)trisiloxan-3-yl)propyl)amino)-N,N-dimethyl-6-oxohexan-1-aminium bromide]	excellent activity
